Here are results for 6 compounds from patent US11236129B2, “IL-17A binding peptides and medical uses thereof” (Dompe' Farmaceutici S.P.A., priority 2018, dated 2022).

In the assay the target is IL-17RA/IL17RC dimerization induced by IL-17A (Homo sapiens, UniProt Q16552). Put plainly: IL-17RA/IL17RC dimerization assay in response to IL-17A (PathHunter Cytokine Receptor Assay). The class given is cell-based. The settings on record: IL-17A at EC80; read-out: IC50 in IL-17RA/IL7RC dimerization assay. In a few lines: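 Receptor dimerization was read as chemiluminescence from complemented β-galactosidase after IL-17A at EC80 concentration for 6–16 h at 37 °C. Peptides were added 60 min before agonist, at 37 °C or room temperature, with 1% vehicle. Percent inhibition used the EC80-stimulated and vehicle wells as references.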

pIC50: −log10 of the molar value. Residues, ends and D or L forms follow the SMILES beside them.

Chain of IL-17RA/IL17RC dimerization induced by IL-17A (Q16552 24-155): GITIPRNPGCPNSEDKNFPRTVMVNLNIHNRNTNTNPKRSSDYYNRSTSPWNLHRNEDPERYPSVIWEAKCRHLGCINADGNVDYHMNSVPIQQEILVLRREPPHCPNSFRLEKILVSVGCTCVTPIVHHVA

On to `CC[C@H](C)[C@H](NC(=O)[C@H](Cc1c[nH]c2ccccc12)NC(=O)[C@H](CC(=O)O)NC(=O)[C@H](Cc1c[nH]c2ccccc12)NC(=O)[C@H](CC(C)C)NC(=O)[C@H](CC(=O)O)NC(=O)[C@H](C)NC(=O)[C@@H]1CCCN1C(=O)[C@@H](NC(=O)[C@H](Cc1ccc(O)cc1)NC(=O)[C@H](C)NC(=O)[C@H](CCCNC(=N)N)NC(=O)[C@@H](NC(C)=O)C(C)C)C(C)C)C(=O)N[C@@H](CC(N)=O)C(=O)N[C@@H](CCCCN)C(N)=O` [SEQ ID NO: 243] (Ac-VRAYVPADLWDWINK-NH2), for which the pIC50 is greater than 5.00. Regarding `CC[C@H](C)[C@H](NC(=O)[C@H](Cc1c[nH]c2ccccc12)NC(=O)[C@H](CC(=O)O)NC(=O)[C@H](Cc1c[nH]c2ccccc12)NC(=O)[C@H](CC(C)C)NC(=O)[C@H](CC(=O)O)NC(=O)[C@H](C)NC(=O)[C@@H]1CCCN1C(=O)[C@@H](NC(=O)[C@H](Cc1ccc(O)cc1)NC(=O)[C@H](CC(C)C)NC(=O)[C@H](CCCNC(=N)N)NC(=O)[C@@H](NC(C)=O)C(C)C)C(C)C)C(=O)N[C@@H](CC(N)=O)C(=O)N[C@@H](CCCCN)C(N)=O` [SEQ ID NO: 244] (Ac-VRLYVPADLWDWINK-NH2), the pIC50 was greater than 5.00. In the case of `CC[C@H](C)[C@H](NC(=O)[C@H](Cc1c[nH]c2ccccc12)NC(=O)[C@H](CC(=O)O)NC(=O)[C@H](Cc1c[nH]c2ccccc12)NC(=O)[C@H](CC(C)C)NC(=O)[C@H](CC(=O)O)NC(=O)[C@H](C)NC(=O)[C@@H]1CCCN1C(=O)[C@H](CC(C)C)NC(=O)[C@H](Cc1ccc(O)cc1)NC(=O)[C@@H](NC(=O)[C@H](CCCNC(=N)N)NC(=O)[C@@H](NC(C)=O)C(C)C)[C@@H](C)CC)C(=O)N[C@@H](CC(N)=O)C(=O)N[C@@H](CCCCN)C(N)=O` [SEQ ID NO: 245] (Ac-VRIYLPADLWDWINK-NH2) it was greater than 5.00; in that of `CC[C@H](C)[C@H](NC(C)=O)C(=O)N[C@@H](Cc1c[nH]cn1)C(=O)N[C@H](C(=O)N[C@H](C(=O)N[C@H](C(=O)N1CCC[C@H]1C(=O)N[C@@H](CC(C)C)C(=O)N[C@@H](CCC(=O)O)C(=O)N[C@H](C(=O)N[C@@H](Cc1ccccc1)C(=O)N[C@@H](CCC(=O)O)C(=O)N[C@@H](Cc1c[nH]c2ccccc12)C(=O)N[C@@H](CC(C)C)C(=O)N[C@@H](CCC(N)=O)C(=O)N[C@@H](Cc1c[nH]cn1)C(N)=O)[C@@H](C)CC)[C@@H](C)CC)[C@@H](C)O)C(C)C` [SEQ ID NO: 246] (Ac-IHVTIPLEIFEWLQH-NH2), greater than 5.00. `CC[C@H](C)[C@H](NC(C)=O)C(=O)N[C@@H](Cc1c[nH]cn1)C(=O)N[C@H](C(=O)N[C@H](C(=O)N[C@H](C(=O)N1CCC[C@H]1C(=O)N[C@@H](CC(C)C)C(=O)N[C@@H](CCC(=O)O)C(=O)N[C@H](C(=O)N[C@@H](Cc1ccccc1)C(=O)N[C@@H](CCC(=O)O)C(=O)N[C@@H](Cc1c[nH]c2ccccc12)C(=O)N[C@@H](C)C(=O)N[C@@H](CCC(N)=O)C(=O)N[C@@H](Cc1c[nH]cn1)C(N)=O)[C@@H](C)CC)[C@@H](C)CC)[C@@H](C)O)C(C)C` [SEQ ID NO: 247] (Ac-IHVTIPLEIFEWAQH-NH2): the pIC50 was greater than 5.00. With `CC[C@H](C)[C@H](NC(C)=O)C(=O)N[C@@H](Cc1c[nH]cn1)C(=O)N[C@H](C(=O)N[C@H](C(=O)N[C@H](C(=O)N1CCC[C@H]1C(=O)N[C@@H](CC(C)C)C(=O)N[C@@H](CCC(=O)O)C(=O)N[C@H](C(=O)N[C@@H](Cc1ccccc1)C(=O)N[C@@H](CCC(=O)O)C(=O)N[C@@H](Cc1c[nH]c2ccccc12)C(=O)N[C@@H](CC(C)C)C(=O)N[C@@H](CCC(N)=O)C(=O)N[C@@H](CCCNC(=N)N)C(N)=O)[C@@H](C)CC)[C@@H](C)CC)[C@@H](C)O)C(C)C` [SEQ ID NO: 248] (Ac-IHVTIPLEIFEWLQR-NH2), the pIC50 was greater than 5.00.
